Patent US9750705B2, “Agents useful for treating obesity, diabetes and related disorders” (The Regents of the University of California, priority 2012, dated 2017)
Counter-ions that a name gives are not always drawn.

Assays:
[1] = test system: insulin-dependent activation of Akt and ERK in FL83B cells; assay: High-throughput in-cell western blot (ICWB) screen for insulin sensitizers: insulin-dependent phospho-Akt versus phospho-Erk; assay type: cell-based, mouse; details: for rank in the insulin-sensitizer screen: screen of 1689 molecules
Description: Drugs were screened by in-cell western blot (ICWB) for their ability to stimulate phospho-Akt activation in the presence of trace or 10 nM insulin (FIG. 4A). Cells in wells were treated with drugs, and the activity (phosphorylation) of Akt was determined by a phospho-Akt specific antibody. In FIG. 4A, low insulin was given and drugs a, b, c, stimulated Akt activation. In FIG. 4B, 10 nM insulin was given and a, b, and c stimulated signaling over background, and d and e inhibited. […] Drugs were primarily screened for their ability to promote insulin-dependent stimulation of (phospho) Akt, then secondarily screened for lack of activity to stimulate (phospho) Erk, or a high Akt/Erk ratio. Such drugs are expected to cause insulin sensitivity, resistance to obesity, and longevity. Some drugs having these desired characteristics are Shc inhibitors.
FL83B cells were seeded on 384 well plates, 10,000 cells per well in F-12 media supplemented with 10% FBS and 25 mM glucose; 48 hours later the media was replaced with F-12, 25 mM glucose without FBS for sixteen hours; cells were supplemented with assigned drug at desired concentration for 1 hour in duplicate and then, the cells were stimulated with desired concentration of insulin for ten minutes for Akt activation and fifteen minutes for ERK activation measurements. After that time the media was removed and replaced with fixing solution of 5% Formaldehyde in PBS, pH=7.4, 30 minutes later, the fixing solution was replaced with the permeabilization buffer, 0.1% triton X100 in PBS for 40 minutes. […] After the incubation with the secondary antibodies for one hour at room temperature, the wells were washed again two times with the 0.1% tween-20 in PBS and scanned on the Li-Cor Odyssey infrared scanner; images were analyzed with the Li-Cor Odyssey software. […] Phospho-Akt, Phospho-ERK signals than were normalized by tubulin signals in each well and the densitometric results were analyzed to identify drugs which improved metabolic insulin sensitivity without inducing the mitogenic ERK activation. […]

phospho-Shc = assay: Western blot of phospho-Shc (Shc activation); assay type: cell-based; details: dose response
Description: Assays to identify compounds useful for preventing, reducing, delaying or inhibiting symptoms of impaired insulin sensitivity, glucose intolerance or obesity can be performed in vitro. Candidate agents can be contacted with a population of test cells in the presence of insulin (e.g., 1 nM, 5 nM, 10 nM, 100 nM or more). An agent that prevents, reduces, delays or inhibits one or more symptoms of impaired insulin sensitivity, glucose intolerance or obesity increases the ratio of levels of phospho-Akt-1 over phospho-Erk relative to a control ratio. The increase in ratio of levels of phospho-Akt-1 over phospho-Erk can be determined in comparison to a control population of cells that have not been contacted with insulin or have been contacted with a low concentration of insulin (e.g., less than 0.1 nM) or a population of cells contacted with insulin but not with the compound under test. Ratio of levels of phospho-Akt-1 over phospho-Erk can be determined using a Western blot among other methods. Inhibition of Shc activity can be quantitatively measured by assaying the reduction of stimulatory Shc phosphorylation, using a phospho-Shc specific antibody. Inhibition of Shc expression can be measured using a Western blot. […]

[2] = test system: phospho-Akt in FL83B cells; assay: Western blot of insulin-dependent phospho-Akt; assay type: cell-based, mouse; details: for insulin-dependent phospho-Akt (P-Akt) signaling/activation: drug 1 hour, insulin 10 minutes
Description: As explained above and in Example 4, Western blots of phospho-Akt and phospho-Erk are a more accurate and precise and quantitative measure of Akt phosphorylation than ICWB measurements. Insulin-dependent phospho-Akt is a direct measurement of insulin sensitivity, and we expect that Shc inhibitors will stimulate phospho-Akt more than phospho-Erk. All of the drugs listed in FIG. 5A stimulated insulin-dependent phospho-Akt at some concentration. Method. Mouse liver cells FL83B were plated at density of 400.000 cells per well of 6 well plate and cultivated for 48 hours, media was changed to DMEM, 25 mM glucose serum free and 16 hours later the cells were treated with drug at the indicated concentration for one hour. Control wells were treated with the vehicle (DMSO), in certain control wells the metabolic (Akt) insulin signaling was blocked with wortmannin. The cells were induced with indicated concentration of insulin for 10 minutes, total protein was extracted and the Western Blots were performed with indicated antibody as described above. […]

[3] = Basal blood glucose in mice after daily drug administration; assay type: in vivo; details: 2.5 mg/kg I.P. for 4 days
Description: Groups of age/sex matched mice of Control and ShcKO genotypes were food deprived for four hours and challenged with I.P. injection of insulin, and glucose concentration was determined in blood exactly at indicated time-points. Decrease and recovery of blood glucose was calculated as a % of basal level (the time-point before insulin injection). Basal levels of glucose were measured in triplicate for each mouse. For the GTT, the same groups of mice were fasted during fourteen hours and challenged with glucose injection I.P., analogously the blood glucose concentrations were measured.
Groups of mice, ten for the experimental drug treatment and 14 for the placebo treatment were subject for I.P. administration of a drug or placebo solutions daily during four days. Acarbose, a known drug which decreases blood glucose concentration was used as a control. The insulin tolerance test, ITT was performed on the mice as described previously, in Example 2.

[4] = test system: phospho-Erk in FL83B cells; assay: Western blot of phospho-Erk; assay type: cell-based, mouse; details: drug 1 hour, then insulin
Description: As explained above and in Example 4, Western blots of phospho-Akt and phospho-Erk are a more accurate and precise and quantitative measure of Akt phosphorylation than ICWB measurements. Insulin-dependent phospho-Akt is a direct measurement of insulin sensitivity, and we expect that Shc inhibitors will stimulate phospho-Akt more than phospho-Erk. All of the drugs listed in FIG. 5A stimulated insulin-dependent phospho-Akt at some concentration. Method. Mouse liver cells FL83B were plated at density of 400.000 cells per well of 6 well plate and cultivated for 48 hours, media was changed to DMEM, 25 mM glucose serum free and 16 hours later the cells were treated with drug at the indicated concentration for one hour. Control wells were treated with the vehicle (DMSO), in certain control wells the metabolic (Akt) insulin signaling was blocked with wortmannin. The cells were induced with indicated concentration of insulin for 10 minutes, total protein was extracted and the Western Blots were performed with indicated antibody as described above. Mouse liver cells FL83B were plated at density of 400.000 cells per well of 6 well plate and cultivated for 48 hours, media was changed to DMEM, 25 mM glucose serum free and 16 hours later the cells were treated with drug at the indicated concentration for one hour. […]

[5] = Insulin tolerance test (ITT) in mice; assay type: in vivo

Compound | rank in the insulin-sensitizer screen [1] | phospho-Shc (Shc activation) (phospho-Shc) | P-Akt/P-Erk ratio ([2]; Western blot) | insulin-dependent phospho-Akt (P-Akt) signaling/activation [2] | basal blood glucose [3] | Erk activation [4] | insulin sensitivity in-vivo (ITT) ([5]; 2.5 mg/kg I.P. for 4 days) | P-Akt/P-Erk ratio in the primary screen ([1]; ICWB, FL83B cells) | insulin sensitivity in vivo (ITT) ([5]; PO, 20 and 50 mg/kg)
COc1cc2ncnc(Nc3ccc(Oc4ccccc4)cc3)c2cc1OC [Src I-1] | top 35 out of 1689 | inhibited phospho-Shc activation in dose-dependent manner | increasing the P-Akt/P-Erk ratio | stimulates insulin-dependent P-Akt signaling | significantly decreased basal blood glucose | decreased Erk activation | increased insulin sensitivity in-vivo |  | 
COC1=C(OC)C(=O)C(CCCCCCCCCCO)=C(C)C1=O [idebenone] |  | decreased phospho-Shc in a dose-dependent manner |  | increased insulin-dependent phospho-Akt activation in a dose-dependent manner |  |  |  | increased P-Akt/P-Erk ratio | increased insulin sensitivity in vivo
CN(C)C(=N)N=C(N)N [metformin, metformin hydrochloride] | top 35 out of 1689 |  |  |  |  |  |  |  | 
